Source: US10610522B2, “Methods for retreating irritable bowel syndrome (IBS)” (Salix Pharmaceuticals, Inc., priority 2014, dated 2020)

How the values were obtained:
d-IBS = assay: IBS-QOL questionnaire in d-IBS patients, rifaximin 550 mg BID vs placebo; type: in vivo, human; settings: Week 4
Method: Both groups received placebo for an additional 14 days after the initial 2-week treatment. Quality of life was assessed with the 34-item IBS-QOL questionnaire at baseline and 4 weeks after initiating treatment. Each item was scored on a 5-point scale (1=not at all; 2=slightly; 3=moderately; 4=quite a bit; and 5=extremely or a great deal). Results for composite and subscale scores were converted to a scale ranging from 0 to 100, with higher scores indicating better QOL.
Following a 2-week initial treatment period, both groups of patients received placebo for an additional 14 days. Quality of life was assessed via the 34-item IBS-QOL questionnaire at baseline and 4 weeks after initiating treatment. Each item was scored on a 5-point scale (1=not at all; 2=slightly; 3=moderately; 4=quite a bit; 5=extremely or a great deal); results for composite and subscale scores were converted to a scale ranging from 0 to 100, with higher scores indicating better QOL.

[1] = Crossover drug interaction study: oral cyclosporine 600 mg on pharmacokinetics of single-dose rifaximin 550 mg; type: in vivo, human
Method: Eligible subjects were healthy men and women 18 to 45 years of age. […] The 2 dosing periods were separated by 7 days. […] Subjects underwent a supervised fast overnight (for >8 hours) before dosing and for 4 hours after dosing, though water was permitted ad libitum. Subjects remained at the clinical research unit from Day 0 through the morning of Day 3, and from Day 7 through Day 10. A follow-up phone contact was made 3 (+1) days after discharge, which concluded their participation in the study. Study duration was up to 35 days, including a 21-day screening window, dosing on Day 1, a 7-day washout period, dosing on Day 8, discharge from the clinic on Day 10, and a 3 (+1) day follow-up period after discharge.

cytochrome P450 1A2 = molecular target: T1, cytochrome P450 1A2 (Homo sapiens, UniProt P05177); assay: In vitro cytochrome P450 inhibition; type: biochemical; settings: 2 to 200 ng/mL
T1 sequence (P05177 1-516): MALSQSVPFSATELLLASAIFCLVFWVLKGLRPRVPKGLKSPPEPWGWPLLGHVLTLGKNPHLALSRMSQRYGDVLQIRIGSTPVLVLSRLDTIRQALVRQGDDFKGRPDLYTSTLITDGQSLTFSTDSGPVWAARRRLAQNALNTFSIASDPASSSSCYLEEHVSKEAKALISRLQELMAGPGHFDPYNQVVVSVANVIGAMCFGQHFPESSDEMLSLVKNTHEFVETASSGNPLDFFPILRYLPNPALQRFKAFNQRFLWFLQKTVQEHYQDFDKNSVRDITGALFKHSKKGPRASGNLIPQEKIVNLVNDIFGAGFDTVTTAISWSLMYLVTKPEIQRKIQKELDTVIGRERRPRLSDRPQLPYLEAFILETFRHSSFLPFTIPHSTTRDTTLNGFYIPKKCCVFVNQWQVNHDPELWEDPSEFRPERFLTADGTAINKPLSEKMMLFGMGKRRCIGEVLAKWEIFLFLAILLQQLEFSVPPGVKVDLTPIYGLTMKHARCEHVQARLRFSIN

[2] = rifaximin 1100 mg/d 14 d (n = 191)
[3] = both sexes, human, plasma, oral
[4] = both sexes, human, plasma, oral, 550 mg

SMILES: CO[C@H]1/C=C/O[C@@]2(C)Oc3c(C)c(O)c4c(O)c(c5c(nc6cc(C)ccn65)c4c3C2=O)NC(=O)/C(C)=C\C=C\[C@H](C)[C@H](O)[C@@H](C)[C@@H](O)[C@@H](C)[C@H](OC(C)=O)[C@@H]1C [Rifaximin, (2S,16Z,18E,20S,21S,22R,23R,24R,25S,26S,27S,28E)-5,6,21,23,25 Pentahydroxy-27-methoxy-2,4,11,16,20,22,24,26-octamethyl-2,7-(epoxypentadeca-(1,11,13)trienimino) benzofuro (4,5-e) pyrido(1,2-a) benzimidazole-1,15(2H)-dione,25-acetate]
- Improvement with rifaximin over placebo, IBS-QOL Body image (d-IBS; 1100 mg/d): 37.4%
- Improvement with rifaximin over placebo, IBS-QOL Dysphoria (d-IBS; 1100 mg/d): 25.3%
- Improvement with rifaximin over placebo, IBS-QOL Food avoidance (d-IBS; 1100 mg/d): 22.1%
- Improvement with rifaximin over placebo, IBS-QOL Health worry (d-IBS; 1100 mg/d): 30.6%
- Improvement with rifaximin over placebo, IBS-QOL Interference with activity (d-IBS; 1100 mg/d): 22.2%
- Improvement with rifaximin over placebo, IBS-QOL Overall score (d-IBS; 1100 mg/d): 28.7%
- Improvement with rifaximin over placebo, IBS-QOL Relationship (d-IBS; 1100 mg/d): 39.5%
- Improvement with rifaximin over placebo, IBS-QOL Sexual (d-IBS; 1100 mg/d): 24.9%
- Improvement with rifaximin over placebo, IBS-QOL Social reaction (d-IBS; 1100 mg/d): 31.6%
- Mean change from baseline in IBS-QOL, Body image (d-IBS; [2]): 20.1
- Mean change from baseline in IBS-QOL, Dysphoria (d-IBS; [2]): 24.8
- Mean change from baseline in IBS-QOL, Food avoidance (d-IBS; [2]): 25.0
- Mean change from baseline in IBS-QOL, Health worry (d-IBS; [2]): 16.0
- Mean change from baseline in IBS-QOL, Interference with activity (d-IBS; [2]): 22.2
- Mean change from baseline in IBS-QOL, Relationship (d-IBS; [2]): 14.9
- Mean change from baseline in IBS-QOL, Sexual (d-IBS; [2]): 13.6
- Mean change from baseline in IBS-QOL, Social reaction (d-IBS; [2]): 17.3
- Mean change from baseline in IBS-QOL, Overall score (d-IBS; rifaximin 1100 mg/d 14 d (n = 191), 0-100 scale): 20.4
- Tmax [1, 3]: 2 h
- half-life [1, 3]: 6.61 h
- AUC(0-inf) [1, 4]: 2.53 ng·h/mL
- Cmax [1, 4]: 0.48 ng/mL
- Tmax [1, 4]: 1 h
- half-life [1, 4]: 2.86 h
- Increase in rifaximin mean AUC on co-administration of cyclosporine ([1]; healthy subjects): 124 fold
- Increase in rifaximin mean Cmax on co-administration of cyclosporine ([1]; healthy subjects): 83 fold
- Inhibition of cytochrome P450 1A2 (cytochrome P450 1A2): does not inhibit
